This note sets out measurements from PubChem BioAssay AID463199 (Broad Institute, 2010).

The source made the active and inactive calls.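 Rule for the calls: active = AC50, the dose giving half-maximal effect, exceeds a fixed cutoff for a compound that rescues yeast growth under heat; inactive = the rest, inconclusive results apart.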 A value given as a limit tells only on which side of the number the result lay.

This experiment relates to S. cerevisiae Burl-1 ts mutant growth, BacTiter-Glo, 38.5C 24 h. Kind of experiment: growth induction of Burl-1 ts yeast mutant, dose response, counter-screen for SUMOylation pathway inhibitor project, whole organism, S. cerevisiae, luminescence (AID 463199). In general terms: A counterscreen serves to expose hits that act by an unwanted route or on another target.
Broadly, the AC50 is the midpoint of the concentration-response curve, whichever way the signal moves. Consider `CCC(C)(C)NC(=O)C(c1ccc(C)cc1)N(CC1CCCO1)C(=O)CNC(=O)c1cccs1` (stereo not drawn), for which the AC50 is > 42 µM (inactive).

`CCOc1ccc(NC(=O)CC2C(=O)N(c3ccccc3)C(=S)N2Cc2ccccn2)cc1` (stereo not drawn): the AC50 was > 42 µM (inactive).

For `O=C(CN(CC1CCCO1)C(=O)CNS(=O)(=O)c1ccc(F)cc1)NCc1ccccc1` (stereo not drawn), the AC50 was > 42 µM (inactive).

Consider `COc1cc2c(cc1OC)C(c1ccccc1[N+](=O)[O-])N(C(C)=O)CC2` (stereo not drawn), for which the AC50 was > 42 µM (inactive).

For `Nc1cc(-c2ccc(Cl)cc2)nn1S(=O)(=O)c1ccc(Cl)cc1`, the AC50 was > 42 µM (inactive).

Turning to `CCN(CC)CCCn1c(=S)[nH]c2ccc(Cl)cc2c1=O`, the AC50 is 38.6 µM.

With `COc1ccccc1-n1nnnc1SCC(=O)Nc1ccc(C)c(N)c1`, the AC50 was > 42 µM (inactive).

As for `O=C(NCCCN1CCOCC1)C1CCC(=O)N1CCc1ccccc1` (stereo not drawn), the AC50 is > 42 µM (inactive).

For the compound `Cc1cccc(N(C(=O)c2ccc(CN3CCOCC3)o2)C(C(=O)NC2CCCCC2)c2ccc(F)cc2)c1` (stereo not drawn), the AC50 is > 42 µM (inactive).

Turning to `CCCc1nc2c(nnn2Cc2ccccc2F)c(=O)[nH]1`, the AC50 was > 42 µM (inactive).

Consider `O=C(Nc1ccsc1C(=O)O)c1cccc(C(F)(F)F)c1`, for which the AC50 was > 42 µM (inactive).

`CCOC1(OCC)C(c2ccc(Cl)cc2)C(C#N)(C#N)C1(OCC)OCC` (stereo not drawn): the AC50 was > 42 µM (inactive).

For `CC(=Nc1ccccc1)C1=C(O)CC(C)(C)CC1=O`, the AC50 was > 42 µM (inactive).

`COc1ccc2cc(C#N)c(Nc3cccc(F)c3)nc2c1`: the AC50 is > 42 µM (inactive).

On to `Cc1ccc(S(=O)(=O)NN2C(=O)c3ccccc3NC2c2ccccc2F)cc1` (stereo not drawn), for which the AC50 was > 42 µM (inactive).

For `Cc1ccc(S(=O)(=O)N2CCOCC2)cc1NC(=O)COC(=O)CNC(=O)c1ccccc1`, the AC50 was > 42 µM (inactive).

In the case of `Oc1ccc(C2=CSC3=NCCN23)cc1O`, the AC50 was > 42 µM (inactive).

Turning to `CC1(C)CCC(=O)N2CC[C@H]3C[C@H](OC(=O)Nc4ccc(Br)cc4)C[C@@H]1[C@H]32`, the AC50 is > 42 µM (inactive).

As for `COc1ccc(CN(CC(=O)NCC2CCCO2)C(=O)CCC(=O)Nc2cc(C)on2)cc1` (stereo not drawn), the AC50 is > 42 µM (inactive).

Regarding `COc1cc(OC)c(C(=O)N2CCN(c3ccccn3)CC2)cc1OC`, the AC50 is > 42 µM (inactive).

Consider `COc1ccc(C2=Nn3c(nnc3-c3ccco3)SC2)cc1`, for which the AC50 is > 42 µM (inactive).

As for `CCCNc1nc2ccccc2c(=O)[nH]1`, the AC50 was > 42 µM (inactive).

On to `Cc1ccc(/C=N/NC(=O)NC23CC4CC(CC(C4)C2)C3)o1`, for which the AC50 is > 42 µM (inactive).

`CC(C)C(NC(=S)Nc1ccccc1)C(=O)O` (stereo not drawn): the AC50 is > 42 µM (inactive).

On to `CCOC(=O)c1cccc(NC(=O)C2CCCN(S(=O)(=O)c3c(C)n[nH]c3C)C2)c1` (stereo not drawn), for which the AC50 was > 42 µM (inactive).

As for `CC(C)CCNC(=O)Nc1ccc2c(c1)N(C)C(=O)CS2`, the AC50 is > 42 µM (inactive).

As for `CC(C)NC(=O)NC(=O)COC(=O)CCCSc1nc2ccccc2s1`, the AC50 is > 42 µM (inactive).

In the case of `Cc1ccc(SCC(=O)O/N=C(\N)c2cccc([N+](=O)[O-])c2)cc1`, the AC50 was > 42 µM (inactive).

Turning to `Cc1nc(CC(=O)N/N=C/c2ccc(OCC(=O)O)cc2)cs1`, the AC50 is > 42 µM (inactive).

Consider `O=C(CCC(=O)OC(C(=O)c1ccccc1)c1ccccc1)Nc1ccccc1` (stereo not drawn), for which the AC50 was > 21 µM (inactive).

Turning to `CC(=O)c1ccc2noc(-c3ccc(F)cc3)c2c1`, the AC50 is > 42 µM (inactive).

`CC1C(=O)CC(c2ccccc2)N(C)C1c1ccccc1` (stereo not drawn): the AC50 is > 42 µM (inactive).

Consider `COc1cc(SC)ccc1C(=O)N1CCCCCC1`, for which the AC50 was > 42 µM (inactive).

Turning to `CC(C)C(=O)Nc1ccc(-c2nc3cccnc3o2)cc1`, the AC50 is > 42 µM (inactive).

`O=C(CSc1ccc(Br)cc1)Nc1ccccc1N1CCOCC1`: the AC50 is > 42 µM (inactive).

Take `CCOC(=O)C1CCN(CC(O)COCc2ccccc2)CC1` (stereo not drawn): the AC50 is > 42 µM (inactive).

Consider `Cc1ccc(NC(=O)CC2CS(=O)(=O)CC2CC(=O)Nc2ccc(C)c(C)c2)cc1C` (stereo not drawn), for which the AC50 was 19.2 µM.

For the compound `C=C1C(O)[C@@H]2O[C@]3(CC[C@H](/C=C/C(C)[C@@H]4CC(C)=CC5(O[C@H](C[C@@](C)(O)C(=O)O)CCC5O)O4)O3)CC[C@H]2O[C@@H]1C(O)CC(C)[C@H]1OC2(CCCCO2)CCC1C` (stereo partly drawn), the AC50 was 4.06 µM.

As to `COC(=O)/C=C\C(=O)Nc1cccc([N+](=O)[O-])c1`, the AC50 is > 42 µM (inactive).

`O=C(N/N=C/c1cccc([N+](=O)[O-])c1)C1COc2ccccc2O1` (stereo not drawn): the AC50 was > 42 µM (inactive).

As to `Fc1cccc(NC(=S)N2CCn3cccc3C2c2cccnc2)c1` (stereo not drawn), the AC50 was > 42 µM (inactive).

On to `COc1ccc(CCNC(=O)CC2C(=O)NCCN2CC(C)(C)C)cc1` (stereo not drawn), for which the AC50 was > 42 µM (inactive).

In the case of `CCOC(=O)COc1nc(-c2ccc(C)cc2)cc(-c2ccco2)c1C#N`, the AC50 is > 42 µM (inactive).

Turning to `COc1ccc(C2=NOC(Cn3nc(C(=O)NCc4cccs4)cc3-c3ccccc3)C2)cc1` (stereo not drawn), the AC50 is > 42 µM (inactive).

As to `CC(=O)Nc1ccc(S(=O)(=O)Nc2ccc3c(c2)C(=O)OC3)cc1`, the AC50 was > 42 µM (inactive).

For `CCNC(=O)/C(C#N)=C/c1c(N2CCCCCC2)nc2ccccn2c1=O`, the AC50 was > 42 µM (inactive).

In the case of `CC(C)(C)c1ccc(CN(Cc2ccccc2)C(c2ccccn2)c2nnnn2C(C)(C)C)cc1` (stereo not drawn), the AC50 is > 42 µM (inactive).

In the case of `C/C=C/C(=O)N1c2ccc(C)cc2C(C)=CC1(C)C`, the AC50 was > 42 µM (inactive).

On to `Cc1cc(C)c2c(Cn3ccnc3)cc(=O)oc2c1`, for which the AC50 is > 42 µM (inactive).

For `CCC(NC(=O)c1ccccc1NC(=O)c1ccco1)C(=O)NC1CCCCC1` (stereo not drawn), the AC50 is > 42 µM (inactive).

On to `Cn1cc(Br)c(C(=O)Nc2nccs2)n1`, for which the AC50 is > 42 µM (inactive).

With `CCCCC(=O)Nc1cc(OC)c(NC(=O)C2CCCCC2)cc1OC`, the AC50 was > 42 µM (inactive).

`CCN(CC)S(=O)(=O)c1ccc(N2CCCC2)c(C(=O)OCC(=O)Nc2cc(C)on2)c1`: the AC50 is > 42 µM (inactive).

Take `O=C(COC(=O)COc1ccccc1Cl)Nc1ccccc1OC(F)F`: the AC50 is > 42 µM (inactive).

In the case of `O=C(CSc1nc2ncccc2[nH]1)NC1CCCCC1`, the AC50 is > 42 µM (inactive).

As to `NC(=O)CN1CCOCCN(CC(N)=O)CCOCC1`, the AC50 was > 42 µM (inactive).

Take `Cc1cc(C)c2c(=O)[nH]cnc2n1`: the AC50 was > 42 µM (inactive).

As for `CCOc1ccc(Cl)cc1S(=O)(=O)N1CCC(C(=O)NCc2cccnc2)CC1`, the AC50 was > 42 µM (inactive).

As to `CC(=O)C(C(c1ccccc1)c1c[nH]c2ccccc12)[N+](=O)[O-]` (stereo not drawn), the AC50 was > 42 µM (inactive).

As to `CC1CCN(CCCCOc2cccc(Br)c2)CC1`, the AC50 is > 42 µM (inactive).

In the case of `CCOCCCNC(=O)C(c1ccc(OC)cc1)N(Cc1ccc2c(c1)OCO2)C(=O)CNC(C)=O` (stereo not drawn), the AC50 is > 42 µM (inactive).

Take `Cc1cccc2nc3ccccc3cc12`: the AC50 was > 42 µM (inactive).

Take `Clc1cc(Br)ccc1OCCOCCN1CCOCC1`: the AC50 was > 42 µM (inactive).

For `Cc1ccc(S(=O)(=O)NCC(=O)OCC(=O)c2ccc(Br)s2)cc1`, the AC50 was > 42 µM (inactive).

Consider `Cc1ccc(C(=O)NCCCNC(=O)c2ccc(C)nc2)cc1`, for which the AC50 was > 42 µM (inactive).

On to `CCn1nc(CC(=O)Nc2ccc(-n3cnnn3)c(C)c2)c2ccccc2c1=O`, for which the AC50 is > 42 µM (inactive).

Consider `CCCCC(=O)N/N=C(\C)CC(=O)Nc1cc(Cl)ccc1OC`, for which the AC50 is > 42 µM (inactive).

Take `CCC(=O)N1c2ccc(S(=O)(=O)N3CCN(c4ccc([N+](=O)[O-])cc4)CC3)cc2CC1C` (stereo not drawn): the AC50 was > 42 µM (inactive).

As to `COc1ccc(Cl)cc1C(=O)NCCc1ccc(S(=O)(=O)NC(=O)NC2CCCCC2)cc1`, the AC50 is > 42 µM (inactive).

As for `Cc1nc(CSc2nnc3scc(-c4ccccc4)n23)cs1`, the AC50 is > 42 µM (inactive).

Take `COC(=O)[C@@]12CCCCN1[C@H](c1ccc(-c3cccc(Cl)c3)c(OC)c1)[C@H]1C(=O)N(C)C(=O)[C@H]12`: the AC50 is > 42 µM (inactive).

Regarding `O=[N+]([O-])c1c(NCCCO)cc(Sc2nc3ccccc3s2)c2nonc12`, the AC50 was > 42 µM (inactive).

Take `CCOc1ccc(-c2nc3n(c(=O)c2C#N)CCS3)cc1`: the AC50 was 40.7 µM.

As to `CCn1c(SCC(=O)OC)nnc1-c1ccncc1`, the AC50 is > 42 µM (inactive).

For the compound `N#C/C(=C/c1ccc(N2CCCCC2)o1)C(=O)Nc1ccc(Cl)cc1`, the AC50 is > 42 µM (inactive).

Take `COc1cccc(CN(C)CC2CCCN(CCc3ccc(Cl)cc3)C2)c1OC` (stereo not drawn): the AC50 was > 42 µM (inactive).

In the case of `O=C(c1ccc(OC2CCN(CCc3ccccc3)CC2)cc1)N1CCCC1`, the AC50 was > 42 µM (inactive).

In the case of `CCCNC(=O)Cn1nc(C)n2c(cc3cc(F)ccc32)c1=O`, the AC50 was > 42 µM (inactive).

On to `CCNC(=S)Nc1ccc(C)c(S(=O)(=O)Nc2ccccc2OC)c1`, for which the AC50 is > 42 µM (inactive).

In the case of `COc1ccc(N2C(=O)CC(NCc3cccs3)C2=O)cc1` (stereo not drawn), the AC50 was > 42 µM (inactive).

Consider `O=c1[nH]cnc2cc(Cl)ccc12`, for which the AC50 was 4 µM.

Consider `Oc1c(Cl)cc(Cl)cc1/C=N/c1nc(-c2ccc(Cl)cc2)cs1`, for which the AC50 is > 42 µM (inactive).

As for `O=C(/C=C/N1CCOCC1)c1coc2ccccc12`, the AC50 is > 42 µM (inactive).

For the compound `O=C(O)CCc1ccc(-c2ccccc2)n1NC(=O)c1cccs1`, the AC50 was > 42 µM (inactive).

For `N#CC1=C(N)Oc2c(ccc3ccccc23)C1c1cccs1` (stereo not drawn), the AC50 is > 42 µM (inactive).

As for `CCc1ccccc1NC(=O)N[C@@H](C)C(=O)OC`, the AC50 was > 42 µM (inactive).

In the case of `O=C(CP(=O)(c1ccccc1)c1ccccc1)N1CCOCC1`, the AC50 was > 42 µM (inactive).

Regarding `COC(=O)C1C2C=CC3(CN(CCc4ccccc4)C(=O)C13)O2` (stereo not drawn), the AC50 was > 21 µM (inactive).
